Assay results from ChEMBL document CHEMBL5143607, “Discovery and structure-activity relationships of a novel oxazolidinone class of bacterial type II topoisomerase inhibitors” (Bioorg Med Chem Lett, 2022).
≈ marks a conversion by molar mass, not a printed value.

Tests used:
[1] = test system: Acinetobacter baumannii; assay: Antibacterial activity against Acinetobacter baumannii NCTC 13420 assessed as bacterial growth inhibition by CLSI protocol based assay; assay type: functional
[2] = test system: Klebsiella pneumoniae; assay: Antibacterial activity against Klebsiella pneumoniae ATCC 700603 assessed as bacterial growth inhibition by CLSI protocol based assay; assay type: functional
[3] = test system: Pseudomonas aeruginosa; assay: Antibacterial activity against Pseudomonas aeruginosa ATCC 27853 assessed as bacterial growth inhibition by CLSI protocol based assay; assay type: functional
[4] = test system: Escherichia coli; assay: Antibacterial activity against Escherichia coli W4573 assessed as bacterial growth inhibition by CLSI protocol based assay; assay type: functional
[5] = test system: Escherichia coli; assay: Antibacterial activity against Escherichia coli N43 assessed as bacterial growth inhibition by CLSI protocol based assay; assay type: functional
[6] = test system: Staphylococcus aureus; assay: Antibacterial activity against Staphylococcus aureus ATCC 29213 assessed as bacterial growth inhibition by CLSI protocol based assay; assay type: functional
[7] = Lipophilicity, logD of the compound by shake flask assay; assay type: physicochemical; details: octanol/water
[8] = Cytotoxicity against human HepG2 cells assessed as reduction in cell viability for 24 hrs by Celltiter-Glo assay; assay type: toxicity, cell-based
[9] = target: Voltage-gated inwardly rectifying potassium channel KCNH2 (Homo sapiens, UniProt Q12809); assay: Inhibition of human ERG by Ionworks electrophysiology assay; assay type: toxicity
[10] = target: DNA gyrase (Escherichia coli, UniProt P0AES4+P0AES6); assay: Inhibition of Escherichia coli DNA gyrase supercoiling activity; assay type: protein-complex assay
[11] = Inhibition of Escherichia coli topoisomerase 4 assessed as reduction in decatenation
[12] = Intrinsic clearance in mouse liver microsomes in presence of NADPH and measured upto 45 mins; assay type: ADME, Microsome; details: read-out: CLH
[13] = Intrinsic clearance in human liver microsomes in presence of NADPH and measured upto 45 mins; assay type: ADME, Microsome; details: read-out: CLH
[14] = Kinetic solubility of compound; assay type: physicochemical; details: read-out: Kinetic_solubility
[15] = Plasma protein binding in mouse assessed as free fraction by equilibrium dialysis assay; assay type: ADME, cell-free
[16] = target: DNA topoisomerase 2-alpha (Homo sapiens, UniProt P11388); assay: Inhibition of human topoisomerase 2 assessed as reduction in decatenation
[17] = test system: Escherichia coli; assay: Antibacterial activity against Escherichia coli ATCC25922 assessed as bacterial growth inhibition by CLSI protocol based assay; assay type: functional
[18] = test system: Escherichia coli; assay: Resistance development in Escherichia coli ATCC25922 assessed as spontaneous resistance frequency at 4 times MIC by resistance development assay; assay type: functional
[19] = Protein binding in mouse plasma by equilibrium dialysis assay; assay type: ADME, cell-free; details: read-out: PPB (converted)
[20] = Protein binding in human plasma by equilibrium dialysis assay; assay type: ADME, cell-free; details: read-out: PPB (converted)
[21] = target: hERG (KCNH2) (Homo sapiens, UniProt Q12809); assay: Inhibition of human ERG at 100 uM by Ionworks electrophysiology assay; assay type: toxicity
hERG (KCNH2), sequence (Q12809 whole entry): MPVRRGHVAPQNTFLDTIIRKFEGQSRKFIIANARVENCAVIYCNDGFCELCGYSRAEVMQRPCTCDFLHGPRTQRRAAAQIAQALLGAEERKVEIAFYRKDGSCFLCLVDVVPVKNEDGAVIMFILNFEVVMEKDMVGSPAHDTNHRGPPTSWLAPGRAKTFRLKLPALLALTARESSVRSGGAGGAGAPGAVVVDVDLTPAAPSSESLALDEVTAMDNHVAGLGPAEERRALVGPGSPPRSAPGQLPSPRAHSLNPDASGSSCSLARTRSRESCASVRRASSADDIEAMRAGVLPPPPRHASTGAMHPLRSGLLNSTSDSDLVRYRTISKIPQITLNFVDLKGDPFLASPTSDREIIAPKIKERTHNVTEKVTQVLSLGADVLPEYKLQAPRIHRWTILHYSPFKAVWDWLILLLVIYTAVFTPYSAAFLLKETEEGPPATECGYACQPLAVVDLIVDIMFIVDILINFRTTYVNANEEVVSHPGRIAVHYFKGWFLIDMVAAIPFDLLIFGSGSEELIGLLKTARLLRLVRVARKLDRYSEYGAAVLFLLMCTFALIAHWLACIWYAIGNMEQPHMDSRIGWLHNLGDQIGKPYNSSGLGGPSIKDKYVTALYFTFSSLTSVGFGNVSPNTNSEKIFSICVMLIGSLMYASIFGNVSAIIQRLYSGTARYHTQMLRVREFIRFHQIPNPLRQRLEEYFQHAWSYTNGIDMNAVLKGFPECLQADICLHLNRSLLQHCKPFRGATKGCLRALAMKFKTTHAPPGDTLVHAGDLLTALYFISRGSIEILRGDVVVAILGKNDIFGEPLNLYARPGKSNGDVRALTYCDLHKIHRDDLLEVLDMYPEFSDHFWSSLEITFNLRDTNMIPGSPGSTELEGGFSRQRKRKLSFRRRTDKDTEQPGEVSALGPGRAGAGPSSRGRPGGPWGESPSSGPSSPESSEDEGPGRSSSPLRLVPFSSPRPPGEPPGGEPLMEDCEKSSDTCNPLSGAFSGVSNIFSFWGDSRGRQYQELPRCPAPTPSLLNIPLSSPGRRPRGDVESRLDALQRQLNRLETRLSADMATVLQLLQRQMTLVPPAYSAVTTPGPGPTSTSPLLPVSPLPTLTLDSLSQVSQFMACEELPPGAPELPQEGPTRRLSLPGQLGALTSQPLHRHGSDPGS

Voltage-gated inwardly rectifying potassium channel KCNH2, sequence (Q12809 whole entry): as above
DNA topoisomerase 2-alpha, sequence (P11388 whole entry): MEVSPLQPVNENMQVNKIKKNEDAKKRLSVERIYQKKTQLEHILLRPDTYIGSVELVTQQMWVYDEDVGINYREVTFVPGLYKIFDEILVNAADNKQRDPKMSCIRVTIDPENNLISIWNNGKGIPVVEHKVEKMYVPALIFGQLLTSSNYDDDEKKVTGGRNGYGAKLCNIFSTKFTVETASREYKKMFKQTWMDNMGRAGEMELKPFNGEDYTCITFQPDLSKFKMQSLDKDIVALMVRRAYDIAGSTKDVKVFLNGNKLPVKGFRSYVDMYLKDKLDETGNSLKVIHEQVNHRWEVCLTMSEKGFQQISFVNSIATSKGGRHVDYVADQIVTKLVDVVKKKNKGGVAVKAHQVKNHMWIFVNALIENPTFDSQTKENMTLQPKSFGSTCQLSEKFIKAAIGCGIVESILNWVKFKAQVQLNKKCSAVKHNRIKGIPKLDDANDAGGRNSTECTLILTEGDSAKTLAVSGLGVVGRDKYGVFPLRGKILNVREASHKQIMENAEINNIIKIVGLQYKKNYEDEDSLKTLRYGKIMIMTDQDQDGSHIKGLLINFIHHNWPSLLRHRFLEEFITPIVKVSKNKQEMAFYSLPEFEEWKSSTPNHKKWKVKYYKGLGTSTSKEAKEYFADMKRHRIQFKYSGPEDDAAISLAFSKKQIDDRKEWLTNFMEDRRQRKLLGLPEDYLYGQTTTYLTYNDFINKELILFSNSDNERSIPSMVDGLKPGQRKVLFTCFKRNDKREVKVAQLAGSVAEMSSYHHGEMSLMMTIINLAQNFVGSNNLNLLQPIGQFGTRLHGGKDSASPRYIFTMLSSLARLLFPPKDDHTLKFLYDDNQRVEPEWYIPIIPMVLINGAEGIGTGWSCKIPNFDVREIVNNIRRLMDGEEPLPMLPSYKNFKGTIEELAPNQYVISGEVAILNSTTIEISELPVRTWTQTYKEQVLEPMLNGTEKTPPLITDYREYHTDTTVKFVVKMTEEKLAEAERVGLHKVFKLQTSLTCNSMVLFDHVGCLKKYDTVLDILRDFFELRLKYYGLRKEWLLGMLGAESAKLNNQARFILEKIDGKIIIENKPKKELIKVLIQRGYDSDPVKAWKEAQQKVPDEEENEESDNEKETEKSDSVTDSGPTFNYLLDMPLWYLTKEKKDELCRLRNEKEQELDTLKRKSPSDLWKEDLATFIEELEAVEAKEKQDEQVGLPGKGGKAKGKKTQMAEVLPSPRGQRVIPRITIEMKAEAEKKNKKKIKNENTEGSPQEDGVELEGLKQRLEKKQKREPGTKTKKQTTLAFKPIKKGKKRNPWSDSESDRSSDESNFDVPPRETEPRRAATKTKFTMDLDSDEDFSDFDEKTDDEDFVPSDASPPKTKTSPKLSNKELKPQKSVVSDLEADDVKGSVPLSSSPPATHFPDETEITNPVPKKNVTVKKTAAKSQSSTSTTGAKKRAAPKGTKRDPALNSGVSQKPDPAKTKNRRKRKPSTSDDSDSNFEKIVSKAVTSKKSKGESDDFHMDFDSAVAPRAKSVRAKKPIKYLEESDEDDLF

Row | SMILES | MIC [1] [µg/mL] | MIC [2] [µg/mL] | MIC [3] [µg/mL] | MIC [4] [µg/mL] | MIC [5] [µg/mL] | MIC [6] [µg/mL] | logD [7] | IC50 at 24 h [8] [µg/mL] | IC50 [9] [µM] | IC50 [10] [µM] | IC50 [11] [µM] | microsomal CLint [12] [µL/min/mg] | microsomal CLint [13] [µL/min/mg] | solubility kinetic [14] [µM] | fraction unbound [15] | IC50 [16] [µM] | further results
1 | COc1ncc2ccc(=O)n(CCN[C@H]3CC[C@H]4[C@H](C3)OC(=O)N4c3ccc4c(n3)NC(=O)CO4)c2n1 | 3.2 (≈ 6.31 µM) | > 64 | > 64 | 32 (≈ 63.1 µM) | 1 (≈ 1.97 µM) | 2 (≈ 3.94 µM) | 1.79 | – | – | – | – | – | – | – | – | – | –
2 | N#Cc1ccc2ccc(=O)n(CCCN[C@H]3CC[C@H]4[C@H](C3)OC(=O)N4c3ccc4c(n3)NC(=O)CO4)c2c1 | 0.12 (≈ 0.233 µM) | 2 (≈ 3.89 µM) | 1 (≈ 1.94 µM) | 0.06 (≈ 0.117 µM) | ≤ 0.016 | 0.06 (≈ 0.117 µM) | 1.03 | 55 (≈ 107 µM) | 7 | – | – | – | – | – | – | – | –
3 | COc1ccc2ccc(=O)n(CCN[C@H]3CC[C@H]4[C@H](C3)OC(=O)N4c3ccc4c(n3)NC(=O)CS4)c2n1 | 0.015 (≈ 0.0287 µM) | 2 (≈ 3.83 µM) | 1 (≈ 1.91 µM) | 0.12 (≈ 0.23 µM) | ≤ 0.002 | ≤ 0.002 | 2.58 | 35 (≈ 67 µM) | 4 | 0.105 | 0.024 | > 277 | 267 | 54 (≈ 28.2 µg/mL) | 0.09 | > 100 | MIC [17]: 0.06 µg/mL (≈ 0.115 µM)
4 | COc1cnc2ccc(=O)n(CCN[C@H]3CC[C@H]4[C@H](C3)OC(=O)N4c3ccc4c(n3)NC(=O)CO4)c2c1 | 1 (≈ 1.97 µM) | 8 (≈ 15.8 µM) | 2 (≈ 3.95 µM) | 0.25 (≈ 0.494 µM) | ≤ 0.008 | 0.03 (≈ 0.0592 µM) | 1.36 | > 128 | 32 | 0.22 | 0.1 | 62 | 35 | 94 (≈ 47.6 µg/mL) | 0.25 | > 100 | –
5 | COc1cnc2ccc(=O)n(CCCN[C@H]3CC[C@H]4[C@H](C3)OC(=O)N4c3ccc4c(n3)NC(=O)CO4)c2c1 | 0.5 (≈ 0.961 µM) | 8 (≈ 15.4 µM) | 2 (≈ 3.84 µM) | 0.25 (≈ 0.48 µM) | 0.008 (≈ 0.0154 µM) | 0.06 (≈ 0.115 µM) | 0.94 | > 64 | > 100 | 0.46 | 0.015 | 9 | < 3 | > 100 | > 0.3 | > 100 | Activity [18]: 3.2 10^-7No_unit
6 | COc1ccc2ccc(=O)n(CCN[C@H]3CC[C@H]4[C@@H](C3)OC(=O)N4c3ccc4c(n3)NC(=O)CO4)c2n1 | 0.12 (≈ 0.237 µM) | 8 (≈ 15.8 µM) | 2 (≈ 3.95 µM) | 0.5 (≈ 0.987 µM) | < 0.008 | 0.03 (≈ 0.0592 µM) | 2 | > 8 | 3 | – | – | – | – | – | – | – | fraction unbound [19]: 0.878; fraction unbound [20]: 0.919
7 | COc1cc2c(ccc(=O)n2CCN[C@H]2CC[C@H]3[C@H](C2)OC(=O)N3c2ccc3c(n2)NC(=O)CO3)cn1 | 0.5 (≈ 0.987 µM) | 32 (≈ 63.2 µM) | 16 (≈ 31.6 µM) | 2 (≈ 3.95 µM) | 0.06 (≈ 0.118 µM) | 0.5 (≈ 0.987 µM) | 1.69 | – | – | – | – | – | – | – | – | – | inhibition at 100 µM [21]: 83%
8 | COc1ccc2ccc(=O)n(CCN[C@H]3CC[C@H]4[C@H](C3)OC(=O)N4c3ccc4c(n3)NC(=O)C(C)(C)O4)c2n1 | 1 (≈ 1.87 µM) | 64 (≈ 120 µM) | 32 (≈ 59.9 µM) | 2 (≈ 3.74 µM) | 0.03 (≈ 0.0561 µM) | 0.03 (≈ 0.0561 µM) | 2.84 | – | – | – | – | – | – | – | – | – | –
9 | COc1ccc2ncc(=O)n(CCN[C@H]3CC[C@H]4[C@H](C3)OC(=O)N4c3ccc4c(n3)NC(=O)CO4)c2n1 | 0.06 (≈ 0.118 µM) | 4 (≈ 7.88 µM) | 4 (≈ 7.88 µM) | 0.25 (≈ 0.493 µM) | ≤ 0.008 | 0.015 (≈ 0.0296 µM) | 1.6 | > 64 | 7 | – | – | – | – | – | – | – | –
10 | N#Cc1cnc2ccc(=O)n(CCCN[C@H]3CC[C@H]4[C@H](C3)OC(=O)N4c3ccc4c(n3)NC(=O)CO4)c2c1 | 2 (≈ 3.88 µM) | 8 (≈ 15.5 µM) | 2 (≈ 3.88 µM) | 0.25 (≈ 0.485 µM) | 0.015 (≈ 0.0291 µM) | 0.5 (≈ 0.97 µM) | 0.5 | > 32 | > 100 | 0.34 | 4.24 | < 3 | < 3 | 86 (≈ 44.3 µg/mL) | > 0.3 | > 100 | Activity [18]: 7.8 10^-8No_unit
11 | O=C1COc2ccc(N3C(=O)O[C@H]4C[C@@H](NCCn5c(=O)cnc6ccc(F)cc65)CC[C@@H]43)nc2N1 | 0.03 (≈ 0.0607 µM) | 8 (≈ 16.2 µM) | 4 (≈ 8.09 µM) | 0.25 (≈ 0.506 µM) | ≤ 0.002 | 0.015 (≈ 0.0303 µM) | 1.58 | > 64 | – | – | – | – | – | – | – | – | inhibition at 100 µM [21]: 33%
12 | COc1ccc2ccc(=O)n(CCN[C@@H]3CC[C@@H]4[C@H](C3)OC(=O)N4c3ccc4c(n3)NC(=O)CO4)c2n1 | 1 (≈ 1.97 µM) | 8 (≈ 15.8 µM) | 4 (≈ 7.9 µM) | 0.25 (≈ 0.494 µM) | 0.004 (≈ 0.0079 µM) | 0.008 (≈ 0.0158 µM) | 2 | > 32 | 5 | – | – | – | – | – | – | – | fraction unbound [19]: 0.873; fraction unbound [20]: 0.965
